10 molecules from ChEMBL document CHEMBL1201862, “PubChem BioAssay data set” (2004) can be followed below.

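Five concentrations, 48 hours, 96-well plates. GI50: concentration for 50% inhibition of growth.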 Active and inactive are the calls of the source. Cut-off read from the data, not from the text of the source: active = GI50 up to about 1.1 µM and inactive = higher.

Among the test systems are MCF7; OVCAR-5; MDA-MB-435; SF-268; SK-MEL-28; Malme-3M; RXF 393; COLO 205; M14; HCT-15; SK-OV-3; OVCAR-4; NCI/ADR-RES; NCI-H23; NCI-H522; K562; UO-31; U-251; HCT-116; IGROV-1.
Common to all, as to assay: NCI-60 cell line screen, 48 h

As to `O=C(O)/C(Cc1c[nH]nn1)=N\O`, the GI50 in the experiment on MCF7, in the experiment with OVCAR-5, in the experiment with MDA-MB-435, with SF-268, in the experiment with SK-MEL-28 and with Malme-3M was > 100 µM (inactive) each time. The GI50 is > 100 µM (inactive) in the experiment with RXF 393; > 100 µM (inactive) in the experiment with COLO 205; > 100 µM (inactive) in the experiment on M14; greater than 100 µM with HCT-15; > 100 µM (inactive) in the experiment on SK-OV-3; > 100 µM (inactive) with OVCAR-4. In addition, the GI50 in the experiment with NCI/ADR-RES, with NCI-H23, in the experiment on NCI-H522, in the experiment with K562, in the experiment on UO-31 and with U-251 was > 100 µM (inactive) in each case. Further, the GI50 in the experiment on HCT-116 and in the experiment with IGROV-1 was > 100 µM (inactive) throughout.

For `[N-]=[N+]=CC(=O)COC(=O)c1ccccc1`, the GI50 in the experiment on MCF7 was 88.5 µM (inactive); with OVCAR-5, > 100 µM (inactive); in the experiment on MDA-MB-435 it was > 100 µM (inactive); with SF-268, > 100 µM (inactive); in the experiment on SK-MEL-28, > 100 µM (inactive); with Malme-3M it was > 100 µM (inactive). The GI50 is > 100 µM (inactive) with RXF 393; > 100 µM (inactive) in the experiment with COLO 205; > 100 µM (inactive) in the experiment with M14; greater than 100 µM in the experiment on HCT-15; > 100 µM (inactive) in the experiment on SK-OV-3; > 100 µM (inactive) in the experiment with OVCAR-4. For the same molecule, the GI50 with NCI/ADR-RES, in the experiment with NCI-H23, in the experiment with NCI-H522, in the experiment on K562, with UO-31 and in the experiment with U-251 was > 100 µM (inactive) each time. The GI50 in the experiment on HCT-116 and with IGROV-1 was > 100 µM (inactive) each time.

`CC(=O)OC1=CC2(OC(C)=O)CC(C)(C)C1C1C(=O)C=CC(=O)C12` (stereo not given): the GI50 is 32.7 µM (inactive) in the experiment on MCF7; > 100 µM (inactive) in the experiment with OVCAR-5; 22.9 µM (inactive) with MDA-MB-435; > 63 µM (inactive) with SF-268; 41.4 µM (inactive) with SK-MEL-28; 17.6 µM (inactive) with Malme-3M. The GI50 was 44.6 µM (inactive) in the experiment with RXF 393; > 42.5 µM (inactive) in the experiment on COLO 205; > 79.3 µM (inactive) in the experiment on M14; greater than 55.6 µM in the experiment with HCT-15; > 100 µM (inactive) with SK-OV-3; > 100 µM (inactive) with OVCAR-4. Moreover, the GI50 in the experiment with NCI/ADR-RES was 49.8 µM (inactive); in the experiment with NCI-H23, > 73.1 µM (inactive); with NCI-H522, > 36.5 µM (inactive); in the experiment with K562 it was 97.1 µM (inactive); in the experiment on UO-31, > 70 µM (inactive); in the experiment on U-251, > 66.2 µM (inactive). For the same molecule, the GI50 in the experiment with HCT-116 was > 51.3 µM (inactive); in the experiment on IGROV-1 it was > 50.7 µM (inactive).

As for `O=C(c1ccccc1)c1ccc(C(c2c(O)c3ccccc3oc2=O)c2c(O)c3ccccc3oc2=O)cc1`, the GI50 was 34.5 µM (inactive) with MCF7; 23.4 µM (inactive) in the experiment on OVCAR-5; 29.4 µM (inactive) in the experiment with MDA-MB-435; 22.5 µM (inactive) in the experiment with SF-268; 28.8 µM (inactive) in the experiment on SK-MEL-28; 17.9 µM (inactive) in the experiment with Malme-3M. The GI50 was 27.2 µM (inactive) in the experiment on RXF 393; 31.7 µM (inactive) with COLO 205; 24.7 µM (inactive) in the experiment on M14; 30.5 µM with HCT-15; 18.9 µM (inactive) in the experiment with SK-OV-3; 26.9 µM (inactive) in the experiment on OVCAR-4. Further, the GI50 is 22.9 µM (inactive) in the experiment with NCI/ADR-RES; 20 µM (inactive) in the experiment on NCI-H23; 16.6 µM (inactive) in the experiment on NCI-H522; 33.5 µM (inactive) in the experiment on K562; 14.8 µM (inactive) in the experiment with UO-31; 26.6 µM (inactive) with U-251. Moreover, the GI50 in the experiment with HCT-116 was 26.7 µM (inactive); in the experiment on IGROV-1 it was 23.3 µM (inactive).

As for `COC(=O)/C=C1/OC(c2ccc(C)cc2)=C(Cl)C1=O`, the GI50 in the experiment with MCF7 is 16.1 µM (inactive); with OVCAR-5, 19.1 µM (inactive); in the experiment on MDA-MB-435 it was 17.8 µM (inactive); with SF-268 it was 16.4 µM (inactive); in the experiment on SK-MEL-28, 16.7 µM (inactive); with Malme-3M, 17.7 µM (inactive). For the same molecule, the GI50 was 7.66 µM (inactive) in the experiment on RXF 393; 11.2 µM (inactive) in the experiment with COLO 205; 18.1 µM (inactive) in the experiment on M14; 9.25 µM in the experiment with HCT-15; 24.2 µM (inactive) with SK-OV-3; 13.3 µM (inactive) with OVCAR-4. Also, the GI50 was 22.1 µM (inactive) in the experiment with NCI/ADR-RES; 19 µM (inactive) with NCI-H23; 9.4 µM (inactive) in the experiment with NCI-H522; 4.97 µM (inactive) in the experiment with K562; 17.5 µM (inactive) in the experiment on UO-31; 12 µM (inactive) with U-251. The values for the GI50 in the experiment with HCT-116 and with IGROV-1 were 11.7 µM (inactive) and 16.5 µM (inactive), respectively.

In the case of `CCOC(=O)c1sc2nc(SC)nc(Nc3ccc(OC)c(OC)c3)c2c1N`, the GI50 in the experiment with MCF7 is 3.95 µM (inactive); with OVCAR-5, > 100 µM (inactive); in the experiment with MDA-MB-435 it was 34.3 µM (inactive); in the experiment with SF-268 it was 14.3 µM (inactive); in the experiment on SK-MEL-28, 14.7 µM (inactive); in the experiment on Malme-3M, 23.2 µM (inactive). The GI50 in the experiment with RXF 393 is 3.33 µM (inactive); in the experiment on COLO 205, 83.4 µM (inactive); with M14, 42.4 µM (inactive); in the experiment on HCT-15, greater than 100 µM; in the experiment with SK-OV-3 it was 12.9 µM (inactive); with OVCAR-4, 6.65 µM (inactive). Also, the GI50 with NCI/ADR-RES was 3.48 µM (inactive); in the experiment on NCI-H23, 3.52 µM (inactive); in the experiment on NCI-H522, 5.79 µM (inactive); in the experiment on K562, > 100 µM (inactive); in the experiment on UO-31 it was 22.4 µM (inactive); in the experiment on U-251, 3.03 µM (inactive). Further, the GI50 in the experiment on HCT-116 was 7.05 µM (inactive); with IGROV-1, > 100 µM (inactive).

`CCOC(=O)C1(C(N)=O)C(=O)c2ccncc2C1=O` (stereo not given): the GI50 in the experiment with MCF7, in the experiment on OVCAR-5, in the experiment with MDA-MB-435, with SF-268, with SK-MEL-28 and in the experiment on Malme-3M was > 100 µM (inactive) in each case. Further, the GI50 in the experiment on RXF 393 is > 100 µM (inactive); with COLO 205, > 100 µM (inactive); in the experiment with M14, > 100 µM (inactive); in the experiment with HCT-15, greater than 100 µM; in the experiment on SK-OV-3, > 100 µM (inactive); in the experiment on OVCAR-4, > 100 µM (inactive). For the same molecule, the GI50 in the experiment with NCI/ADR-RES, with NCI-H23, with NCI-H522, in the experiment on K562, in the experiment with UO-31 and in the experiment with U-251 was > 100 µM (inactive) each time. In addition, the GI50 in the experiment on HCT-116 and in the experiment on IGROV-1 was > 100 µM (inactive) each time.

Consider `Cc1c(CCCl)c(N=[N+]=[N-])n2c(nc3ccccc32)c1C#N`, for which the GI50 is 0.47 µM (active) in the experiment with MCF7; 1.94 µM (inactive) in the experiment on OVCAR-5; 1.43 µM (inactive) with MDA-MB-435; 2.22 µM (inactive) in the experiment with SF-268; 1.58 µM (inactive) in the experiment on SK-MEL-28; 1.45 µM (inactive) in the experiment on Malme-3M. Also, the GI50 with RXF 393 was 1.4 µM (inactive); with COLO 205, 1.07 µM (active); in the experiment on M14, 1.25 µM (inactive); in the experiment on HCT-15, 1.3 µM; in the experiment on SK-OV-3, 2.11 µM (inactive); in the experiment on OVCAR-4, 1.53 µM (inactive). Further, the GI50 with NCI/ADR-RES is 1.69 µM (inactive); in the experiment with NCI-H23 it was 1.41 µM (inactive); in the experiment with NCI-H522, 0.163 µM (active); in the experiment on K562, 0.29 µM (active); with UO-31, 1.65 µM (inactive); in the experiment on U-251, 2.17 µM (inactive). Moreover, the results for the GI50 in the experiment with HCT-116 and with IGROV-1 were 0.498 µM (active) and 1.01 µM (active), respectively.

As for `NC(=O)c1ccc2c(c1)S(=O)(=O)c1ccccc1C2=O`, the GI50 in the experiment on MCF7 is > 100 µM (inactive); in the experiment on OVCAR-5, > 100 µM (inactive); in the experiment on MDA-MB-435, > 100 µM (inactive); in the experiment with SF-268, 35.9 µM (inactive); with SK-MEL-28, > 100 µM (inactive); in the experiment with Malme-3M it was > 100 µM (inactive). In addition, the GI50 in the experiment with RXF 393 is > 100 µM (inactive); in the experiment on COLO 205, > 100 µM (inactive); in the experiment with M14, > 100 µM (inactive); in the experiment with HCT-15, greater than 100 µM; with SK-OV-3, 75 µM (inactive); with OVCAR-4, > 100 µM (inactive). Besides, the GI50 in the experiment with NCI/ADR-RES is > 100 µM (inactive); with NCI-H23, > 100 µM (inactive); in the experiment with NCI-H522 it was > 100 µM (inactive); in the experiment on K562, > 100 µM (inactive); with UO-31, > 100 µM (inactive); in the experiment with U-251 it was 73.3 µM (inactive). Further, the GI50 with HCT-116 and with IGROV-1 was > 100 µM (inactive) throughout.

As to `COC1=CC(=O)c2c(cc(COP(N)(=O)N(CCBr)CCBr)n2C)C1=O` (stereo not given), the GI50 in the experiment with MCF7 was < 0.01 µM (active); with OVCAR-5, 0.104 µM (active); in the experiment with MDA-MB-435 it was 1.16 µM (inactive); with SF-268, < 0.01 µM (active); with SK-MEL-28 it was 1.56 µM (inactive); with Malme-3M, 0.308 µM (active). The GI50 in the experiment with RXF 393 is 0.0719 µM (active); in the experiment with COLO 205 it was 0.0242 µM (active); in the experiment on M14, < 0.01 µM (active); in the experiment on HCT-15 it was 0.242 µM; with SK-OV-3, 0.0137 µM (active); in the experiment on OVCAR-4 it was 1.66 µM (inactive). Further, the GI50 is 0.184 µM (active) in the experiment on NCI/ADR-RES; < 0.01 µM (active) with NCI-H23; < 0.01 µM (active) in the experiment with NCI-H522; 0.135 µM (active) in the experiment with K562; 0.131 µM (active) with UO-31; < 0.01 µM (active) in the experiment with U-251. Further, the GI50 was < 0.01 µM (active) in the experiment on HCT-116 and 0.0188 µM (active) in the experiment on IGROV-1.
